According to US20260345649A1, “PHARMACEUTICAL COMPOSITION FOR DESTRUCTION OF TUMOR BLOOD VESSELS” (SAMSUNG MEDICAL FOUNDATION, priority 2022, published 2026):

What was measured:
HUVEC [1] = experiment: 5-FU cytotoxicity on HUVEC according to D-glucose or L-glucose concentration (MTS); assay type: cell-based, human
Method: An MTS cell proliferation assay was conducted to evaluate the cytotoxic effect of 5-FU on HUVEC according to D-glucose concentration under different pH conditions.
The cells were then incubated for an additional 24 hours in DMEM medium containing various concentrations of glucose.
To assess the cytotoxic effect of L-glucose on HUVEC, the experiment was conducted in the same manner as described in Example 2, Section 3.
To assess the cytotoxic effect of D-glucose or L-glucose on HUVEC, the experiment was conducted in the same manner as described in Example 2, Section 3.

HUVEC [2] = experiment: Intracellular ROS generation in HUVEC (DCF-DA staining); assay type: cell-based, human
Method: The effect of D-glucose on intracellular reactive oxygen species (ROS) generation in HUVEC was measured using the DCF-DA staining method. HUVEC cells (25,000 per well) were cultured in a 96-well microplate with a dark, clear bottom. After 24 hours of incubation, the cells were treated with D-glucose at concentrations of 10 mM, 25 mM, 50 mM, 100 mM, 125 mM, 150 mM, 200 mM, and 250 mM. Following drug treatment, the culture medium was removed, and the cells were washed with 100 μL/well of Hanks' Balanced Salt Solution (HBSS) buffer. After washing, 100 μL/well of diluted DCFDA was added, and the […]. The cells were then incubated in diluted DCFDA solution for 45 minutes at 37 °C in the dark. Following incubation, the DCFDA solution was removed, and 100 μL of HBSS buffer was added. Fluorescence was immediately measured using a fluorescence plate reader at Ex/Em=485/535 nm.
The effect of L-glucose on intracellular ROS generation was measured using the same method as for D-glucose.

blood pressure = conditions: administered into blood vessels; cited from earlier work
platelets = conditions: L-NMMA alone, physiological conditions; cited from earlier work
HUVEC [3] = experiment: HUVEC cytotoxicity according to L-NMMA concentration (MTS); assay type: cell-based, human; conditions: L-NMMA alone, FIG. 19
Method: The cells were then incubated for an additional 24 hours in DMEM medium containing various L-NMMA concentrations. Following incubation, the cells were washed twice with PBS, and 100 μL of fresh DMEM growth medium was added. The cells were then further incubated for 48 hours.

hexokinase = conditions: role: substrate; first enzyme in glycolysis; cited from earlier work
human body = conditions: in vivo; cited from earlier work
[4] = system: human gastric cancer cells; experiment: Human gastric cancer cell xenograft in nude mice, bevacizumab local injection; assay type: in vivo, nude mice (Crj: BALB/c-nu/nu), human tumor cells; conditions: 1 mg bevacizumab, three times at one-week intervals
Method: The animals used in the experiment were three male nude mice (Crj: BALB/c-nu/nu, male), each weighing approximately 30 g and five weeks old, produced by Orient. The mice underwent a one-week acclimatization period in the laboratory before use. Human gastric cancer cells (5×10^6 cells/100 μL in PBS) were xenografted into the subcutaneous fat layer on the dorsal side of each nude mouse. The tumor size was measured periodically, and drug administration was initiated when the tumor reached a diameter of 1 cm.
The experimental animals were administered 1 mg of bevacizumab by injecting 0.2 cc adjacent to the tumor three times at one-week intervals.

advanced gastric cancer = conditions: combined with fluoropyrimidine-cisplatin therapy; cited from earlier work
[5] = D-glucose, L-glucose and mixtures with 5-FU, FIG. 15

## O=C[C@H](O)[C@@H](O)[C@H](O)[C@H](O)CO [D-glucose]
HUVEC [1]; D-glucose at both 5 mM and 25 mM, FIG. 13
  cell viability: significantly reduced cell viability
HUVEC [1]; [5]
  cell viability: significantly reduced cell viability
HUVEC [2]; D-glucose 10 mM to 250 mM, FIG. 11A
  ROS generation with increasing concentration: increased

## CN=C(N)NCCC[C@H](N)C(=O)O [L-NMMA, N^G-Methyl-L-arginine]
Blood pressure
  blood pressure: effectively increases blood pressure
platelets
  platelet activation in vivo: does not activate platelets in vivo
HUVEC [3]
  cell viability: significantly reduced cell viability

## O=C[C@@H](O)[C@H](O)[C@@H](O)[C@@H](O)CO [L-glucose]
HUVEC [1]; [5]
  cell viability: significantly reduced cell viability
HUVEC [1]; FIG. 15
  cell viability, comparison among D-glucose, L-glucose and mixtures: more pronounced reduction in cell viability
HUVEC [1]; L-glucose at both 5 mM and 25 mM, FIG. 14
  cell viability: significantly reduced cell viability
hexokinase
  phosphorylation by hexokinase: not phosphorylated by hexokinase
HUVEC [2]; L-glucose, FIG. 11B
  ROS generation with increasing concentration: decreased
Human body
  toxicity to the human body: non-toxic to the human body

## bevacizumab: recombinant humanized monoclonal antibody designed to inhibit vascular endothelial growth factor (VEGF)
[4]
  tumor size for the following two months: did not change
  tumor size in the third month: began to increase
[4]; P>0.05, FIG. 20
  tumor size four weeks after drug administration compared to before injection: remained nearly unchanged
Advanced gastric cancer
  progression-free survival and overall response rate: improves progression-free survival and overall response rate
